Patent publication US20260207645A1, “USE OF INTEGRIN A5B1 AS TARGET IN SCREENING OF DRUGS FOR PREVENTING AND/OR TREATING BONE LOSS” (The Hong Kong Polytechnic University, priority 2023, published 2026)

Experiments:
[1] = test system: BMSCs; assay: F-actin cytoskeleton (phalloidin staining, confocal) in BMSCs under microgravity; type: cell-based; conditions: microgravity 3 days
Experimental: Testing procedure: BMSCs were cultured in osteogenic medium. […] The representative images were captured at mid-plane of the cells and visualized using a confocal laser scanning microscope (magnification: 400×, scale bar: 25 μm). Hoechst counter-staining (blue; DAPI) was applied for determination of single cells.

[2] = test system: differentiated BMSCs; assay: quantitative analysis of differentiation activity (ALP, RhoA, Rac1) of BMSCs under normal gravity and microgravity; type: cell-based; conditions: microgravity
Experimental: Testing procedure: BMSCs were cultured in osteogenic medium. […] The representative images were captured at mid-plane of the cells and visualized using a confocal laser scanning microscope (magnification: 400×, scale bar: 25 μm). Hoechst counter-staining (blue; DAPI) was applied for determination of single cells. […] The quantitative analysis of the differentiation activity of BMSCs under normal gravity and microgravity is shown in FIG. 6, where FIG. 6a is the ALP activity analysis relative to the positive control group, FIG. 6b is the RhoA activity analysis in total protein, and FIG. 6c is the Rac1 activity analysis in total protein. The data in FIGS. 6a, 6b, and 6c are presented as mean values±SEM. Statistical analysis was performed using one-way […]<0.001; versus control: *p<0.05, ###p<0.001 (n=3).

[3] = biological target: T1, integrin α5β1 (Homo sapiens, UniProt P05556+P08648); assay: competitive solid-phase binding ELISA (soluble integrin α5β1 vs coated fibronectin); conditions: fibronectin-coated plate, soluble integrin α5β1 1.0 μg/ml; read-out: IC50 for competing with fibronectin bound on integrin α5β1
T1 construct: Soluble integrin α5β1 (1.0 μg/ml) (R&D Systems, MN, USA); purchased R&D Systems

[4] = growth factor, concentration not given

IGF-1: growth factor, positive control
F-actin polymerization [1, 4]: stimulated F-actin polymerization

COc1ccc(-c2oc3c(CC=C(C)C)c(O[C@@H]4O[C@H](CO)[C@@H](O)[C@H](O)[C@H]4O)cc(O)c3c(=O)c2O[C@@H]2O[C@@H](C)[C@H](O)[C@@H](O)[C@H]2O)cc1 [icariin]
F-actin polymerization ([1]; 10 nM): stimulated F-actin polymerization
F-actin polymerization ([1]; 0.1 μM): stimulated F-actin polymerization
ALP activity ([2]; differentiated BMSCs): significantly increase
Rac1 activity ([2]; differentiated BMSCs): significantly increase
RhoA activity ([2]; differentiated BMSCs): significantly increase
differentiation of BMSCs ([2]; 10 nM): restore the differentiation
differentiation of BMSCs ([2]; 100 nM): restore the differentiation

C[C@]12CC[C@@H]3c4ccc(O)cc4CC[C@H]3[C@@H]1CC[C@@H]2O [E2, reference compound]
F-actin polymerization [1, 4]: not

CC(C)=CCc1c(O)cc(O)c2c(=O)c(-c3ccc(O)cc3)coc12 [8-prenylgenistein]
IC50 [3]: 390 ± 280 nM

CC(C)=CCc1c(O)cc(O)c2c1O[C@H](c1ccc(O)cc1)CC2=O [8-prenylnaringenin]
IC50 [3]: 7.6 ± 3.92 nM
